This is an account of results in ChEMBL document CHEMBL2429821, “A Casein kinase 1/Checkpoint kinase 1 pyrazolo-pyridine protein kinase inhibitor as novel activator of the p53 pathway” (Bioorg Med Chem Lett, 2013).

Test [1] has as its target Serine/threonine-protein kinase pim-1 (Homo sapiens) (UniProt P11309). Nature of the test: Inhibition of human PIM1 assessed as residual activity at 10 uM relative to control.
Test [2] has as its target Maternal embryonic leucine zipper kinase (Homo sapiens) (UniProt Q14680). Nature of the test: Inhibition of human MELK assessed as residual activity at 1 uM relative to control.
The species named for test [3] is Oryctolagus cuniculus. Description: Inhibition of rabbit MKK1 assessed as residual activity at 10 uM relative to control.
Test [4] addresses Ephrin type-A receptor 2 (Homo sapiens) (UniProt P29317). Nature of the test: Inhibition of human EPHA2 assessed as residual activity at 10 uM relative to control.
For test [5], the target named is T1, Serine/threonine-protein kinase Nek2 (Homo sapiens) (UniProt P51955).
T1 sequence (whole entry): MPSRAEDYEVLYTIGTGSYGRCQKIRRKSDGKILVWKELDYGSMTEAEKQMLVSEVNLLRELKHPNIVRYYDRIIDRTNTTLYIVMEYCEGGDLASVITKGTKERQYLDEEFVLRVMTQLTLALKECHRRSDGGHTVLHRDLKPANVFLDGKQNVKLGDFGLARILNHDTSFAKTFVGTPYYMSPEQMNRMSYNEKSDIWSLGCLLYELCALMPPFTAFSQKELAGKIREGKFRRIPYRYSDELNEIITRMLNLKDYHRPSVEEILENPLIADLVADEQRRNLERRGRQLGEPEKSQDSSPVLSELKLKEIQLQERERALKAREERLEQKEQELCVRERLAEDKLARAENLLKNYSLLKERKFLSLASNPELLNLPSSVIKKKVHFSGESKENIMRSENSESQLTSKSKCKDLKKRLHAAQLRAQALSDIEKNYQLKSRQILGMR
Nature of the test: Inhibition of human NEK2alpha assessed as residual activity at 10 uM relative to control.

Test [6] concerns the target Serine/threonine-protein kinase PLK1 (Homo sapiens) (UniProt P53350). Nature of the test: Inhibition of human PLK1 assessed as residual activity at 1 uM relative to control.
The target in test [7] is T2, Serine/threonine-protein kinase TBK1 (Homo sapiens) (UniProt Q9UHD2).
T2 sequence (whole entry): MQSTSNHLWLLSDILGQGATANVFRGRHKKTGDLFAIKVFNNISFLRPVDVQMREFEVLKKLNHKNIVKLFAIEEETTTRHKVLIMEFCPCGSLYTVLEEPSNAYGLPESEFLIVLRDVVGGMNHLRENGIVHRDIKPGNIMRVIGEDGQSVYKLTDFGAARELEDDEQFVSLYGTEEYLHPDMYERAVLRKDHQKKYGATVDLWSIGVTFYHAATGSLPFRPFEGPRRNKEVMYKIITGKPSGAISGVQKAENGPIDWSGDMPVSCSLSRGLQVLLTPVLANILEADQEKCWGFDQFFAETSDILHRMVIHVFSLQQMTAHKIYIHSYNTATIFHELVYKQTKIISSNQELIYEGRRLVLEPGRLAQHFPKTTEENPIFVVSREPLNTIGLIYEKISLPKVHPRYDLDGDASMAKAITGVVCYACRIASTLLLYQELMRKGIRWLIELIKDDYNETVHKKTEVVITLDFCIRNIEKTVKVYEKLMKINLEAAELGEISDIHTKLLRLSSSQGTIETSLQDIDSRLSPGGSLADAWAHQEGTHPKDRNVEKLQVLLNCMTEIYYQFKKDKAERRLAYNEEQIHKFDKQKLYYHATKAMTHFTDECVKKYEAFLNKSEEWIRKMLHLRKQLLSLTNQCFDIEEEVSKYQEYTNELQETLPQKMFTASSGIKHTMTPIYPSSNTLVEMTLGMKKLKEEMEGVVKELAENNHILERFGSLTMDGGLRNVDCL
Description: Inhibition of human TBK1 assessed as residual activity at 10 uM relative to control.

In test [8] the target is Tyrosine-protein kinase Yes (Homo sapiens) (UniProt P07947). Nature of the test: Inhibition of human YES1 assessed as residual activity at 10 uM relative to control.
The target in test [9] is MAP kinase-interacting serine/threonine-protein kinase 1 (Homo sapiens) (UniProt Q9BUB5). Nature of the test: Inhibition of human MNK1 assessed as residual activity at 1 uM relative to control.
Test [10] concerns the target Mitogen-activated protein kinase 9 (Homo sapiens) (UniProt P45984). Description: Inhibition of human JNK2 assessed as residual activity at 1 uM relative to control.
The species entered for test [11] is Bos taurus. Nature of the test: Inhibition of cow PKA assessed as residual activity at 10 uM relative to control.
The target of test [12] is Serine/threonine-protein kinase N2 (Homo sapiens) (UniProt Q16513). Description: Inhibition of human PRK2 assessed as residual activity at 1 uM relative to control.
Test [13] has as its target SRSF protein kinase 1 (Homo sapiens) (UniProt Q96SB4). Description: Inhibition of human SRPK1 assessed as residual activity at 10 uM relative to control.
Test [14] is filed under the species Rattus norvegicus. Nature of the test: Inhibition of rat AMPK assessed as residual activity at 1 uM relative to control.
Test [15] has as its target Tyrosine-protein kinase BTK (Homo sapiens) (UniProt Q06187). Description: Inhibition of human BTK assessed as residual activity at 10 uM relative to control.
Test [16] concerns the target 3-phosphoinositide-dependent protein kinase 1 (Homo sapiens) (UniProt O15530). Description: Inhibition of human PDK1 assessed as residual activity at 10 uM relative to control.
The target in test [17] is Homeodomain-interacting protein kinase 2 (Homo sapiens) (UniProt Q9H2X6). Description: Inhibition of human HIPK2 assessed as residual activity at 1 uM relative to control.
Test [18] has as its target Serine/threonine-protein kinase pim-1 (Homo sapiens) (UniProt P11309). Description: Inhibition of human PIM1 assessed as residual activity at 1 uM relative to control.
Test [19] has as its target Maternal embryonic leucine zipper kinase (Homo sapiens) (UniProt Q14680). Description: Inhibition of human MELK assessed as residual activity at 10 uM relative to control.
For test [20], the target named is Tyrosine-protein kinase CSK (Homo sapiens) (UniProt P41240). Nature of the test: Inhibition of human CSK assessed as residual activity at 1 uM relative to control.
The target of test [21] is T3, MAP kinase-activated protein kinase 5 (Homo sapiens) (UniProt Q8IW41).
T3 sequence (whole entry): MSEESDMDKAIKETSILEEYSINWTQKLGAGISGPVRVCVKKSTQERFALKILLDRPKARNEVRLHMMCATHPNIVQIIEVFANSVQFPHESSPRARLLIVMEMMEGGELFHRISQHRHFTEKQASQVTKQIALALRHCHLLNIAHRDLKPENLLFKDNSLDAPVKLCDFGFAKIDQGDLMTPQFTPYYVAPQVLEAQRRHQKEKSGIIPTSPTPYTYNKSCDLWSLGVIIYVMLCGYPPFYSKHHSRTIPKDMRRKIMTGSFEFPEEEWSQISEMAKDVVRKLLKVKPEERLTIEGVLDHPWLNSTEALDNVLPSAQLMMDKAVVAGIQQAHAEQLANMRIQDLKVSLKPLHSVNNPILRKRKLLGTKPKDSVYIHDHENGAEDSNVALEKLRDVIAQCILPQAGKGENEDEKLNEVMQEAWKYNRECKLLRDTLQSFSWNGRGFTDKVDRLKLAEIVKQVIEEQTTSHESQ
Description: Inhibition of human PRAK assessed as residual activity at 10 uM relative to control.

Molecules are shown by their SMILES.

Chain of 3-phosphoinositide-dependent protein kinase 1 (Homo sapiens) (O15530 whole entry, looked up): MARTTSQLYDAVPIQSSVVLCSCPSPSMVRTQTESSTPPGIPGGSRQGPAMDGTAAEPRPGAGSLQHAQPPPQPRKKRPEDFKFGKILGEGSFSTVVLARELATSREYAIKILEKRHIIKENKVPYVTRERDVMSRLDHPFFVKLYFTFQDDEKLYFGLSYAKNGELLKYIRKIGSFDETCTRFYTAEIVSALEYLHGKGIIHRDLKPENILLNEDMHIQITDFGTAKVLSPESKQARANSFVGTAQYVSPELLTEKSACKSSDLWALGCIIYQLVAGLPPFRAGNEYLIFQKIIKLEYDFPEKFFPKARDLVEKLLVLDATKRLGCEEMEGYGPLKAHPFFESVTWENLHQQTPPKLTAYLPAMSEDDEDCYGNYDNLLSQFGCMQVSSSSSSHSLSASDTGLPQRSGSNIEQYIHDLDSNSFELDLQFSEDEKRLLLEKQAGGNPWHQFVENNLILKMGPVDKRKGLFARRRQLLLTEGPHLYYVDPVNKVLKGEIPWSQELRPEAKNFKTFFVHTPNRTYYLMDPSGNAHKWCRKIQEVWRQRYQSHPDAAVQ
Chain of Maternal embryonic leucine zipper kinase (Homo sapiens) (Q14680 whole entry, looked up): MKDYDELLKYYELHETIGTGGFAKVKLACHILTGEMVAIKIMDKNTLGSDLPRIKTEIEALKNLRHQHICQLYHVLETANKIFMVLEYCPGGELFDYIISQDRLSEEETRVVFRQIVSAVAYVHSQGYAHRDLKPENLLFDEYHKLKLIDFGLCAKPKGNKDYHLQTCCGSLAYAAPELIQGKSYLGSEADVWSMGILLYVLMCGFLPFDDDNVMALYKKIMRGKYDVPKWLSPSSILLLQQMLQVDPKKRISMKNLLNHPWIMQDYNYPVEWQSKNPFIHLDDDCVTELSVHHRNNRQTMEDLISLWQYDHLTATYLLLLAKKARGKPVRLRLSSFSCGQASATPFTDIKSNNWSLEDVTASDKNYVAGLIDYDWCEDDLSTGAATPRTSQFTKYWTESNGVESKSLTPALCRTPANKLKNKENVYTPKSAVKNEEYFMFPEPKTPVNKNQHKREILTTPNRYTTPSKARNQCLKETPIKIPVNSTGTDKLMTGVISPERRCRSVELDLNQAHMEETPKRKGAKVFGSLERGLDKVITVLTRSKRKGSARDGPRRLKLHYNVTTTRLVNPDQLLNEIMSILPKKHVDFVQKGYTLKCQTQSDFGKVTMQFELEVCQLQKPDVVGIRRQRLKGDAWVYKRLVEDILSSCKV
Chain of Serine/threonine-protein kinase PLK1 (Homo sapiens) (P53350 whole entry): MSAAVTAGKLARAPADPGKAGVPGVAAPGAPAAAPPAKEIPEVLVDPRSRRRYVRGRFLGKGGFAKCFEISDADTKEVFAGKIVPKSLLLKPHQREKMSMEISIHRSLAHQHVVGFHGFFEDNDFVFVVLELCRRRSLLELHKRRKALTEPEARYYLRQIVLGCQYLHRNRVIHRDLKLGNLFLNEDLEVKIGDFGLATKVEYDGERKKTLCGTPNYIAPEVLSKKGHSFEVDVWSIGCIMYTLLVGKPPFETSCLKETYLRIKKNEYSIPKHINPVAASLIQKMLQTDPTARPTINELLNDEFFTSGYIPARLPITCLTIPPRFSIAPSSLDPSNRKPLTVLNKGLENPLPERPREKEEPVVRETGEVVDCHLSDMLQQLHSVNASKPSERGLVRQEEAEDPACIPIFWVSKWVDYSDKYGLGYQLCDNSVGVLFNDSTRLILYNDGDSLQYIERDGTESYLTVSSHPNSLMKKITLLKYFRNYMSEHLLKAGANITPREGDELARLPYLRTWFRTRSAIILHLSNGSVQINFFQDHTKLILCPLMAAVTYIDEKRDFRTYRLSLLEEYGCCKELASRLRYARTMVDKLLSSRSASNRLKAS
Chain of Serine/threonine-protein kinase N2 (Homo sapiens) (Q16513 whole entry, looked up): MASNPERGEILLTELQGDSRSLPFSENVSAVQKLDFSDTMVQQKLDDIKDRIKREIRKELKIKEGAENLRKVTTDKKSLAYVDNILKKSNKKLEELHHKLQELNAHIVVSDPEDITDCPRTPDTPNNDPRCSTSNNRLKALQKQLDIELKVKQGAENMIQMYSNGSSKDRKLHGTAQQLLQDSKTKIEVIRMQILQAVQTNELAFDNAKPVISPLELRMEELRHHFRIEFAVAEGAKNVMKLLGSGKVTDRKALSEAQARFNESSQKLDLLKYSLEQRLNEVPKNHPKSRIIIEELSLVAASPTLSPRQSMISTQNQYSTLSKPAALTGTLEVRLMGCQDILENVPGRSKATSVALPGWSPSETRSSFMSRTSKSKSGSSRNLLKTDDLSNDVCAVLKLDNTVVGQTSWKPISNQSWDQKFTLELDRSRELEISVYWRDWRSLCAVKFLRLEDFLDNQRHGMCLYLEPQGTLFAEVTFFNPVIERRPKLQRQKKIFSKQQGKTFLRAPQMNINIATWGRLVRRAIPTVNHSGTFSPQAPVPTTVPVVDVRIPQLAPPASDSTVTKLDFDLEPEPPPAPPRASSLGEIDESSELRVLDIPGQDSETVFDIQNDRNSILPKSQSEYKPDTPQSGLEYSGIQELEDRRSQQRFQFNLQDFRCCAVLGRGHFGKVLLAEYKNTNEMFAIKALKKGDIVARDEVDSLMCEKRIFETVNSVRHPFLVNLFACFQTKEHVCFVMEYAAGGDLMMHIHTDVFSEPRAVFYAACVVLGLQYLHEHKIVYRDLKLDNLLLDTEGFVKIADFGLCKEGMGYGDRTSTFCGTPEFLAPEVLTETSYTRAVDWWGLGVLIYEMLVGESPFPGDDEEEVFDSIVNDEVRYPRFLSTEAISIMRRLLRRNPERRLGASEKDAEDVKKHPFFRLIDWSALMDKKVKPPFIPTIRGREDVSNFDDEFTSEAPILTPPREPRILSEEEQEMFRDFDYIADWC
Chain of Homeodomain-interacting protein kinase 2 (Homo sapiens) (Q9H2X6 whole entry, looked up): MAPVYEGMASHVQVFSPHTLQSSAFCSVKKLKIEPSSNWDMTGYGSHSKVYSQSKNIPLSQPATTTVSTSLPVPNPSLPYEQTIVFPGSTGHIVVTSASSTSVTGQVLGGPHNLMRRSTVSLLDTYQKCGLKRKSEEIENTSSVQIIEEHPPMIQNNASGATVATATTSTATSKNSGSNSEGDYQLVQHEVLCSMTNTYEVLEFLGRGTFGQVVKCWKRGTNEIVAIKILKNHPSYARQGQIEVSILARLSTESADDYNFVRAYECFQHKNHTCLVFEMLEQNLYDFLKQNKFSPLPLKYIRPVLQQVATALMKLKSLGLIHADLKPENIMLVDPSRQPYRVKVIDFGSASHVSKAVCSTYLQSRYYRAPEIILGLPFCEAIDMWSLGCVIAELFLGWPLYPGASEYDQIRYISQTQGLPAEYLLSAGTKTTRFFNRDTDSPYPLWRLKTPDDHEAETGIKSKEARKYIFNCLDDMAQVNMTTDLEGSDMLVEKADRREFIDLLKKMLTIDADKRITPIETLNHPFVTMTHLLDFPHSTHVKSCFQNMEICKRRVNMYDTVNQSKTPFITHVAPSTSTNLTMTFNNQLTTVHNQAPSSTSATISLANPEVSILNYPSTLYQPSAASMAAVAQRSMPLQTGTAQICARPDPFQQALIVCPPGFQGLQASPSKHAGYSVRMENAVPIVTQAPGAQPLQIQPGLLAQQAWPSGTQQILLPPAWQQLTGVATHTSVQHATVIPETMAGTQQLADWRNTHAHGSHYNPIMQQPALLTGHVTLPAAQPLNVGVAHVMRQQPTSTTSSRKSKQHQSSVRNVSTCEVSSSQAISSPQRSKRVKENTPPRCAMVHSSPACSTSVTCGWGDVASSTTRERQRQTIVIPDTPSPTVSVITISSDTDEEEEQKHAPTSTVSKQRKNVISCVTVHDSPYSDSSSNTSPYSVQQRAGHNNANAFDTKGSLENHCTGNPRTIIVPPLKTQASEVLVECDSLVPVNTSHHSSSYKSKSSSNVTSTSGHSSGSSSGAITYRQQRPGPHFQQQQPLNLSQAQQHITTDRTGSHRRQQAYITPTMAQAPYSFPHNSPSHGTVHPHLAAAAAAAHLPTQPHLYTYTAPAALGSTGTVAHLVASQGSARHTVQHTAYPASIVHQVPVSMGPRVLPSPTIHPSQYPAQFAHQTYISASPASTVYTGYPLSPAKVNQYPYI
Chain of Mitogen-activated protein kinase 9 (Homo sapiens) (P45984 whole entry, looked up): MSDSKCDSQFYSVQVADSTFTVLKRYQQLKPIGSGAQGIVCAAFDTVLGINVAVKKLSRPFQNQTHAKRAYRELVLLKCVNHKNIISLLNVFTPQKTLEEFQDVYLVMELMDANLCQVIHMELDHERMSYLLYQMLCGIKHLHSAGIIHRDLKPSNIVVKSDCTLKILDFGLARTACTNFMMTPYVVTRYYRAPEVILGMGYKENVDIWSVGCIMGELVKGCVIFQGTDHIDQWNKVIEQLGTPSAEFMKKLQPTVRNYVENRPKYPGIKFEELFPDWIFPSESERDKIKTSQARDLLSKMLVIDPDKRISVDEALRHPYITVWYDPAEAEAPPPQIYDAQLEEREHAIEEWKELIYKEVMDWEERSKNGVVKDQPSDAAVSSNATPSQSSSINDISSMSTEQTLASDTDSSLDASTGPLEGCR
Chain of Tyrosine-protein kinase CSK (Homo sapiens) (P41240 2-450 limits assumed): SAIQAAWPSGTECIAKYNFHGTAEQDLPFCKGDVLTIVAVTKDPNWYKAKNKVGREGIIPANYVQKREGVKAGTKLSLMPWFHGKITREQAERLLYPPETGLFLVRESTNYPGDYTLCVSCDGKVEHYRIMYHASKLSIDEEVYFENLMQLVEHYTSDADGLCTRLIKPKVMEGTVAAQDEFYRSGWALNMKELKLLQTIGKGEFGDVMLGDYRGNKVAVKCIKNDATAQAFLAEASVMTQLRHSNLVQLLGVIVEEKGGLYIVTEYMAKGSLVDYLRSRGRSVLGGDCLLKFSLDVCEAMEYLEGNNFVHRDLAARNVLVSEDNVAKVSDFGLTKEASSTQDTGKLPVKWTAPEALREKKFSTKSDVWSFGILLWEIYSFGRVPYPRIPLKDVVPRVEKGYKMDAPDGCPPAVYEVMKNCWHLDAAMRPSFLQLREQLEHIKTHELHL

Turning to `CC(=O)Nc1cccc(-c2cnc3[nH]nc(C)c3c2)c1`, the Activity in test [1] amounted to 28.2%; in [2], 76.1%; in [3], 45.9%; in test [4], 69.5%; in test [5] it was 10.5%; in [6] it was 106%. For the same molecule, the Activity was 48.2% in test [7]; 56.9% in [8]; 70% in test [9]; 98.5% in test [10]; 83.3% in test [11]; 99.9% in test [12]. Besides, the Activity in test [13] is 89%; in [14] it was 74.3%; in test [15] it was 16.5%; in [16], 70.4%; in [17], 72%; in test [18], 73.1%. The Activity turned out to be 38.9% in test [19], 95.3% in [20] and 89.4% in test [21].
As for `CCCC(=O)Nc1n[nH]c2ncc(-c3cccnc3)cc12`, the Activity in test [1] turned out to be 53%; in test [2] it was 115%; in [3], 103%; in test [4] it was 88%; in test [5] it was 90%; in [6], 97%. Moreover, the Activity amounted to 70% in test [7]; 54% in [8]; 79% in test [9]; 99% in test [10]; 94% in [11]; 81% in test [12]. The Activity in test [13] came out at 91%; in test [14], 93%; in test [15], 69%; in test [16] it was 98%; in [17], 72%; in test [18], 89%. In addition, the results for the Activity in test [19], in [20] and in [21] were 64%, 91% and 88%, respectively.
Regarding `CC(=O)Nc1nccc(-c2c(-c3ccccc3)noc2C)n1`, the Activity worked out at 88.9% in test [1]; 103% in [2]; 66.8% in test [3]; 91.9% in [4]; 82.7% in test [5]; 76% in [6]. Moreover, the Activity in [7] turned out to be 105%; in [8], 78.2%; in test [9], 101%; in test [10], 85.2%; in test [11], 92.8%; in test [12], 77.6%. For the same molecule, the Activity worked out at 91.3% in [13]; 82.8% in test [14]; 99.7% in test [15]; 66% in test [16]; 98.9% in test [17]; 105% in test [18]. Moreover, the Activity worked out at 106% in test [19], 93.4% in test [20] and 83.7% in test [21].
